The results in this text go back to US20040071783A1, “Methods and apparatus for particle formation” (priority 1998, published 2004).

Data set [1] in a line: Particle size analysis using the Aerosizer/Aerodisperser system. The format is physicochemical. The following applies: particle size distribution. How it is done:
Particle size analysis of the product was carried out using the Aerosizer/Aerodisperser system (API, USA).

Data set [2] in a line: Crystallinity by XRPD. The format is physicochemical. The settings on record: XRPD pattern.
For data set [3] the following is noted: SEM, in comparison.

In the case of `CC(C)Cc1ccc(C(C)C(=O)O)cc1` (centres unmarked) [Example 1a, ibuprofen], in data set [1], the “SIZE, 5% UNDER” value is 9.241 micron; the “SIZE, 10% UNDER” value was found to be 11.68 micron; the “SIZE, 15% UNDER” value turned out to be 13.57 micron; the “SIZE, 20% UNDER” value stood at 15.21 micron. In data set [1], the “SIZE, 25% UNDER” value was found to be 16.74 micron; the “SIZE, 30% UNDER” value is on record as 18.21 micron; the “SIZE, 35% UNDER” value was determined as 19.62 micron; the “SIZE, 40% UNDER” value is given as 20.99 micron. Besides, in data set [1], the “SIZE, 45% UNDER” value was 22.30 micron; the “SIZE, 50% UNDER” value was found to be 23.58 micron; the “SIZE, 55% UNDER” value came to 24.87 micron; the “SIZE, 60% UNDER” value is on record as 26.16 micron. In data set [1], the “SIZE, 65% UNDER” value came out at 27.48 micron; the “SIZE, 70% UNDER” value is 28.83 micron; the “SIZE, 75% UNDER” value was determined as 30.25 micron; the “SIZE, 80% UNDER” value was determined as 31.76 micron. Further, in data set [1], the “SIZE, 85% UNDER” value is 33.44 micron; the “SIZE, 90% UNDER” value was determined as 35.44 micron; the “SIZE, 95% UNDER” value was determined as 38.65 micron.

Take `CC(C)Cc1ccc(C(C)C(=O)O)cc1` (centres unmarked) [Example 1b, ibuprofen]: in data set [1], the “SIZE, 5% UNDER” value turned out to be 5.920 micron; the “SIZE, 10% UNDER” value was determined as 7.411 micron; the “SIZE, 15% UNDER” value was found to be 8.631 micron; the “SIZE, 20% UNDER” value came out at 9.720 micron. For the same compound, in data set [1], the “SIZE, 25% UNDER” value was 10.75 micron; the “SIZE, 30% UNDER” value was 11.72 micron; the “SIZE, 35% UNDER” value came out at 12.66 micron; the “SIZE, 40% UNDER” value was found to be 13.56 micron. In addition, in data set [1], the “SIZE, 45% UNDER” value was 14.43 micron; the “SIZE, 50% UNDER” value turned out to be 15.30 micron; the “SIZE, 55% UNDER” value is 16.18 micron; the “SIZE, 60% UNDER” value is given as 17.07 micron. In data set [1], the “SIZE, 65% UNDER” value came to 17.99 micron; the “SIZE, 70% UNDER” value is given as 18.94 micron; the “SIZE, 75% UNDER” value is reported as 19.95 micron; the “SIZE, 80% UNDER” value is recorded as 21.05 micron. Further, in data set [1], the “SIZE, 85% UNDER” value is 22.25 micron; the “SIZE, 90% UNDER” value came to 23.67 micron; the “SIZE, 95% UNDER” value is listed as 25.84 micron.

Regarding `CC(C)Cc1ccc(C(C)C(=O)O)cc1` (centres unmarked) [Example 1c, ibuprofen], in data set [1], the “SIZE, 5% UNDER” value was determined as 3.762 micron; the “SIZE, 10% UNDER” value came out at 4.462 micron; the “SIZE, 15% UNDER” value was determined as 5.018 micron; the “SIZE, 20% UNDER” value was 5.518 micron. In addition, in data set [1], the “SIZE, 25% UNDER” value turned out to be 5.999 micron; the “SIZE, 30% UNDER” value was 6.479 micron; the “SIZE, 35% UNDER” value turned out to be 6.966 micron; the “SIZE, 40% UNDER” value is recorded as 7.471 micron. Further, in data set [1], the “SIZE, 45% UNDER” value is on record as 8.004 micron; the “SIZE, 50% UNDER” value is recorded as 8.572 micron; the “SIZE, 55% UNDER” value worked out at 9.186 micron; the “SIZE, 60% UNDER” value is recorded as 9.849 micron. In data set [1], the “SIZE, 65% UNDER” value was 10.55 micron; the “SIZE, 70% UNDER” value came out at 11.28 micron; the “SIZE, 75% UNDER” value is reported as 12.06 micron; the “SIZE, 80% UNDER” value is reported as 12.92 micron. Further, in data set [1], the “SIZE, 85% UNDER” value came out at 13.88 micron; the “SIZE, 90% UNDER” value is 14.96 micron; the “SIZE, 95% UNDER” value worked out at 16.35 micron.

For the compound `CC(C)Cc1ccc(C(C)C(=O)O)cc1` (centres unmarked) [Example 2, ibuprofen], in data set [1], the “SIZE, 5% UNDER” value worked out at 5.815 micron; the “SIZE, 10% UNDER” value worked out at 7.327 micron; the “SIZE, 15% UNDER” value amounted to 8.537 micron; the “SIZE, 20% UNDER” value is recorded as 9.612 micron. In addition, in data set [1], the “SIZE, 25% UNDER” value came to 10.62 micron; the “SIZE, 30% UNDER” value came out at 11.57 micron; the “SIZE, 35% UNDER” value came to 12.49 micron; the “SIZE, 40% UNDER” value is listed as 13.38 micron. For the same compound, in data set [1], the “SIZE, 45% UNDER” value is recorded as 14.26 micron; the “SIZE, 50% UNDER” value stood at 15.17 micron; the “SIZE, 55% UNDER” value is 16.10 micron; the “SIZE, 60% UNDER” value is on record as 17.06 micron. Also, in data set [1], the “SIZE, 65% UNDER” value was 18.06 micron; the “SIZE, 70% UNDER” value was found to be 19.10 micron; the “SIZE, 75% UNDER” value stood at 20.20 micron; the “SIZE, 80% UNDER” value was 21.41 micron. Further, in data set [1], the “SIZE, 85% UNDER” value was 22.79 micron; the “SIZE, 90% UNDER” value is 24.42 micron; the “SIZE, 95% UNDER” value was found to be 26.78 micron.

As to `O=C(O)c1ccccc1O` [Example 3a, salicylic acid], the crystallinity result in data set [2] is given as “crystalline”.

On to `O=C(O)c1ccccc1O` [Example 3b, salicylic acid], for which the crystallinity entry in data set [2] is recorded as “crystalline in form”.

Regarding `CC(C(=O)O)c1cccc(C(=O)c2ccccc2)c1` (centres unmarked) [Example 4, ketoprofen], the crystallinity entry in data set [2] was “confirmed its crystallinity”.

With `O=C(O)c1cccnc1` [Example 5b, nicotinic acid], the “particle size and morphology” value in data set [3] is “comparable particle size and morphology to that of the product of Example 5a”.
